According to ChEMBL document CHEMBL1152088, “Activated ketones as potent reversible inhibitors of interleukin-I converting enzyme” (Bioorg Med Chem Lett, 1994):

Target: T1, Caspase-1 (Homo sapiens, UniProt P29466)
T1 sequence (P29466 whole entry): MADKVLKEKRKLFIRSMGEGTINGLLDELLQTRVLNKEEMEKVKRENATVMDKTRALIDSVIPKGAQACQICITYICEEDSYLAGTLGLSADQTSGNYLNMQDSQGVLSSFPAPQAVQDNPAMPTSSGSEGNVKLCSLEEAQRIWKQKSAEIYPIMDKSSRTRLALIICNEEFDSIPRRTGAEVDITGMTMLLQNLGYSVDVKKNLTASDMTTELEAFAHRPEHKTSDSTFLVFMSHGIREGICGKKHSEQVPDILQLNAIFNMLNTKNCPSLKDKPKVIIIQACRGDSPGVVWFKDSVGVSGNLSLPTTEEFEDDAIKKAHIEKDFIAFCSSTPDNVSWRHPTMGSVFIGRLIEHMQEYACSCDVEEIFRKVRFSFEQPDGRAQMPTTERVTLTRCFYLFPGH
Test: Tested for inhibition of cysteine proteinase IL-1 beta converting enzyme (ICE)

Row | Compound | Ki [nM]
1 | CC(C)[C@H](NC(=O)CCc1ccccc1)C(=O)N[C@@H](C)C(=O)NC(CC(=O)O)C(=O)COC(=O)NCc1ccccc1 (stereo partly drawn) | 120
2 | CC(C)[C@H](NC(=O)CCc1ccccc1)C(=O)N[C@@H](C)C(=O)NC(CC(=O)O)C(=O)C[S+]([O-])CCCc1ccccc1 (stereo partly drawn) | 27
3 | CC(C)[C@H](NC(=O)CCc1ccccc1)C(=O)N[C@@H](C)C(=O)NC(CC(=O)O)C(=O)COC(=O)CCc1ccccc1 (stereo partly drawn) | 2.7
4 | CC(C)[C@H](NC(=O)CCc1ccccc1)C(=O)N[C@@H](C)C(=O)NC(CC(=O)O)C(=O)CS(=O)(=O)CCCc1ccccc1 (stereo partly drawn) | 113
5 | CC(C)[C@H](NC(=O)CCc1ccccc1)C(=O)N[C@@H](C)C(=O)NC(CC(=O)O)C(=O)CSCCCc1ccccc1 (stereo partly drawn) | 11
6 | CC(C)[C@H](NC(=O)CCc1ccccc1)C(=O)N[C@@H](C)C(=O)NC(CC(=O)O)C(=O)CN(CCc1ccccc1)Cc1ccccc1 (stereo partly drawn) | 60
7 | CC(C)[C@H](NC(=O)CCc1ccccc1)C(=O)N[C@@H](C)C(=O)NC(CC(=O)O)C(=O)CNCCc1ccccc1 (stereo partly drawn) | 4.7
8 | CC(C)[C@H](NC(=O)CCc1ccccc1)C(=O)N[C@@H](C)C(=O)NC(CC(=O)O)C(=O)CCCCc1ccccc1 (stereo partly drawn) | 100
